# Results as given in publication PMC10916623, “Tissue distribution and pharmacokinetics of isoxanthohumol from hops in rodents” (Food Science & Nutrition, 2023).
# Several values for one entry are separate records, joined by “and”; a condition that tells them apart may be missing. Identical values can stand only once. Like-named read-outs stand apart in the source and are kept apart here. Marks after values point to notes of the source that are not given here.
# Legend:
# [1] = Tissue and plasma accumulation after daily gavage administration of IXA to mice for 14 days; type: in vivo, C57/BL6 mice; details: IXA 30 mg/kg BW daily 14 days, 24 h after final administration
# Description: Animal species, age, sex, initial BW, feeding conditions, and dosage method were the same as those for the single gavage administration test, but the dose was 30 mg/kg BW. […] Daily gavage administration without fasting was performed at 12:00 PM for 14 days. The final BW was 21–26 g. Blood, brain, thymus, heart, lung, liver, spleen, kidney, and gastrocnemius muscle were collected 24 h after the final administration. The sample collection method was the same as that for the single gavage administration test.
# (§1) Plasma samples were deconjugated by β‐glucuronidase type H‐1 (which has β‐glucuronidase and sulphatase activity; Sigma, St. Louis, MO, USA; G0751) to convert aglycon from conjugated metabolites of IXA and 8‐PN, as described in a previous report (Y. Tanaka et al., [2022]). Briefly, 100 μL of plasma was mixed with 900 μL of 0.1 mol/L sodium acetate buffer (pH 4.7), 200 μL of 50 mmol/L ascorbic acid, and 1 mL of 1.67 μkat/100 μL of β‐glucuronidase type H‐1, and then incubated for 30 min at 37°C. Then, 2.4 nmol of QTM was added to the samples as the internal standard. The liberated aglycone was extracted using ethyl acetate (Kanto Kagaku, 14,029‐2B).
# (§2) Tissue sample deconjugation was performed as described in a previous report with slight modifications (Tanaka et al., [2022]). Tissues were homogenized in phosphate‐buffered saline (pH 7.4), which was nine times the tissue volume. The tissue homogenate was incubated in 50 mmol/L ascorbic acid (one‐fifth the volume of phosphate‐buffered saline) and 1.67 μkat/100 μL of β‐glucuronidase type H‐1 in 0.1 mol/L sodium acetate buffer (pH 4.7, nine times the volume of the sample) for 2 h at 37°C. Then, 2.4 nmol of QTM was added to samples as an internal standard. The supernatant was isolated by centrifugation at 17 × 10^3 m/s^2 (Kubota) for 5 min at 4°C. Then, methanol (Kanto Kagaku, 25183‐2B) was added to the pellets, and they were shaken for 1 min. The methanol layer and pellets were separated by centrifugation at 17 × 10^3 m/s^2 (Kubota, RY1071‐A000) for 5 min at 4°C. Methanol extraction was repeated three times. Finally, methanol extracts were mixed with the supernatant (the composition of the mixture was 30% methanol) and then applied to an Inert Sep C8 (200 mg/3 mL; GL Sciences, Tokyo, Japan; 5010‐61082) cartridge. The cartridge was preconditioned with 6 mL of 2% acetic acid in methanol, and then 9 mL of 2% acetic acid in water. The extracted tissue was passed through the cartridge, and it was washed with 5 mL of 2% acetic acid in 30% methanol aq. The flavonoids were eluted with 10 mL of 2% acetic acid in methanol.
# (§3) The plasma and tissue extracts were evaporated using a Centrifugal Evaporator (EYERA, Tokyo, Japan, CVE‐3000). The samples were stored at −80°C until the next day. Then, the samples were dissolved in 120 μL of a mobile phase solution and divided into two test tubes. The first sample was injected into the HPLC with an ultraviolet detection system (Shimadzu, Kyoto, Japan).
# (§4) IXA and 8‐PN concentrations were determined by their respective standard curves using an internal standard method. A Cadenza 3‐μm CD‐C18 HPLC column (CD005, 150 × 4.6 mm; Imtakt Corporation, Kyoto, Japan) was equipped for HPLC (λ = 295 nm). The mobile phase consisted of methanol:water:acetic acid (60:35:5, v/v/v). The flow rate was set at 1.0 mL/min. […] Because clear peaks over 4.5 pmol/sample were detected for IXA and 8‐PN by visual evaluation, we determined that these concentrations were the peak limit of detections for each flavonoid. We applied calibration curves in the IXA/QTM concentration ratio range of 0.007–35.1 (R ^2 = .9955).
# [2] = Plasma pharmacokinetics after single-gavage administration of IXA to mice; type: in vivo, C57/BL6 mice; details: for Cmax: mean ± SEM
# Description: (§5) Six‐week‐old male C57/BL6 mice (initial BW: 19–24 g; Japan SLC, Shizuoka, Japan) were housed in a room maintained at 23–26°C with a 12‐h light–dark cycle. During the 1‐week acclimatization period, they were allowed free access to a commercial diet (Oriental Yeast Co., Tokyo, Japan) and water. Two days before the experiment, they were fed AIN‐93M (Oriental Yeast Co.). Before drug administration, they were fasted for 20 h, but had free access to water. IXA dissolved in 3% hydroxypropyl‐β‐cyclodextrin and 5% ethanol (Fujifilm; Wako Pure Chemical Corp., Osaka, Japan) was named the injection solution and administered (50 mg/kg BW) to mice intragastrically using a gastric feeding tube (AS ONE, Osaka, Japan). Blood, brain, thymus, heart, lung, liver, spleen, pancreas, kidney, and gastrocnemius muscle were collected 0.5, 1, 2, 4, 8, 12, 24, and 48 h after administration. We also set up a control group, and mice in this group were sacrificed just before we started administering IXA at 0 h. At 4 h after administration, mice were allowed free access to AIN‐93 M. Plasma was isolated by centrifugation at 17 × 10^3 m/s^2 (5911, Kubota, Tokyo, Japan) for 5 min at 4°C. All tissues were dissected, weighed, and immediately frozen in liquid nitrogen. All samples were stored at −80°C until analysis.
# as §1, §3, §4
# [3] = parameters: method as in Possemiers et al., 2008; details: ref Possemiers et al., 2008; cited from earlier work
# [4] = Tissue distribution after single-gavage administration of IXA to mice; type: in vivo, C57/BL6 mice; details: mice; for IXA accumulation, single-ingestion test (at 24 h): single IXA 50 mg/kg BW
# Description: as §5, §2, §3, §4
# [5] = single oral IXA 50 mg/kg BW, plasma
# [6] = kidney, single oral IXA 50 mg/kg BW
# [7] = lung, single oral IXA 50 mg/kg BW
substance,measurement,setting,value
"4,7‐dihydroxy‐5‐methoxy‐8‐prenylflavanone [IXA]","IXA accumulation, 14-day repeated-ingestion test",[1]; brain,0.2 ± 0.1 nmol/g of tissue
same,"IXA accumulation, 14-day repeated-ingestion test",[1]; heart,not detected
same,"IXA accumulation, 14-day repeated-ingestion test",[1]; kidney,5.8 ± 1.0 nmol/g of tissue
same,"IXA accumulation, 14-day repeated-ingestion test",[1]; liver,8.6 ± 2.9 nmol/g of tissue
same,"IXA accumulation, 14-day repeated-ingestion test",[1]; lung,3.2 ± 2.8 nmol/g of tissue
same,"IXA accumulation, 14-day repeated-ingestion test",[1]; plasma,not detected
same,"IXA accumulation, 14-day repeated-ingestion test",[1]; spleen,3.4 ± 2.0 nmol/g of tissue
same,"IXA accumulation, 14-day repeated-ingestion test",[1]; thymus,4.3 ± 3.8 nmol/g of tissue
same,"IXA accumulation, single-ingestion test (at 24 h)","[2]; plasma, single IXA 50 mg/kg BW, 24 h",0.2 ± 0.1 μmol/L of plasma
same,time at which IXA was increased further,"[2]; plasma, single oral IXA 50 mg/kg BW",8 h
same,IXA in plasma at 48 h after administration,"[2]; single oral IXA 50 mg/kg BW, 48 h",not detected
same,T 1/2 (half-life in the mean elimination phase),[2]; [5],1.43 h and 1.4 h
same,time until which detected in plasma after ingestion,[2]; [5],24 h
same,Cmax,"[2]; single oral IXA 50 mg/kg BW, plasma, at 0.5 h, read-out: plasma maximum concentration (C max)",3.95 ± 0.81 µM
same,AUC24h,"[2]; single oral IXA 50 mg/kg BW, plasma, calculated using the mean at each time point",18.2 µM·h
same,Cmax,"[2]; single oral IXA 50 mg/kg BW, plasma, read-out: C max",4 ± 0.8 µM
same,rate of excretion into the feces,[3],approximately 47%
same,IXA detection in the brain,"[4]; brain, single oral IXA 50 mg/kg BW, data not shown",not detected
same,time of second peak of IXA,"[4]; heart, single oral IXA 50 mg/kg BW",4 h
same,C max IXA,"[4]; heart, single oral IXA 50 mg/kg BW, measured at 0.5 h","3.3 ± 1.0^b,c nmol/g of tissue"
same,"IXA accumulation, single-ingestion test (at 24 h)",[4]; kidney,4.6 ± 0.3 nmol/g of tissue
same,time of second peak of IXA,[4]; [6],8 h
same,IXA level at 48 h after ingestion,[4]; [6],2.67 ± 0.41 nmol/g tissue
same,C max IXA,"[4]; kidney, single oral IXA 50 mg/kg BW, measured at 1 h","25.5 ± 5.3^a,b nmol/g of tissue"
same,"IXA accumulation, single-ingestion test (at 24 h)",[4]; liver,3.2 ± 1.3 nmol/g of tissue
same,IXA level at 48 h after ingestion,"[4]; liver, single oral IXA 50 mg/kg BW",0.14 ± 0.12 nmol/g tissue
same,C max IXA,"[4]; liver, single oral IXA 50 mg/kg BW, measured at 1 h",76.2 ± 32.4^a nmol/g of tissue
same,"IXA accumulation, single-ingestion test (at 24 h)",[4]; lung,1.7 ± 1.5 nmol/g of tissue
same,time of second peak of IXA,[4]; [7],2 h
same,IXA level at 48 h after ingestion,[4]; [7],0.05 ± 0.04 nmol/g tissue
same,C max IXA,"[4]; lung, single oral IXA 50 mg/kg BW, measured at 0.5 h","5.3 ± 3.3^b,c nmol/g of tissue"
same,"IXA accumulation, single-ingestion test (at 24 h)",[4]; muscle,0.1 ± 0.1 nmol/g of tissue
same,C max IXA,"[4]; muscle, single oral IXA 50 mg/kg BW, measured at 0.5 h","3.4 ± 1.3^b,c nmol/g of tissue"
same,time of second peak of IXA,"[4]; pancreas, single oral IXA 50 mg/kg BW",12 h
same,C max IXA,"[4]; pancreas, single oral IXA 50 mg/kg BW, measured at 0.5 h","22.4 ± 2.1^b,c nmol/g of tissue"
same,time of second peak of IXA,"[4]; skeletal muscle, single oral IXA 50 mg/kg BW",12 h
same,"IXA accumulation, single-ingestion test (at 24 h)",[4]; spleen,1.1 ± 1.0 nmol/g of tissue
same,time of second peak of IXA,"[4]; spleen, single oral IXA 50 mg/kg BW",4 h
same,C max IXA,"[4]; spleen, single oral IXA 50 mg/kg BW, measured at 0.5 h","6.5 ± 2.2^b,c nmol/g of tissue"
same,"IXA accumulation, single-ingestion test (at 24 h)",[4]; thymus,3.6 ± 3.1 nmol/g of tissue
same,time of second peak of IXA,"[4]; thymus, single oral IXA 50 mg/kg BW",4 h
same,C max IXA,"[4]; thymus, single oral IXA 50 mg/kg BW, measured at 0.5 h","6.5 ± 4.1^b,c nmol/g of tissue"
